# Measured values: ChEMBL document CHEMBL5042524, “Discovery of Novel Histone Deacetylase 6 (HDAC6) Inhibitors with Enhanced Antitumor Immunity of Anti-PD-L1 Immunotherapy in Melanoma” (J Med Chem, 2022)
# Calls of active or inactive are those of the source. No cut-off for these calls is given here.
# Legend:
# [1] = target: T1, Protein deacetylase HDAC6 (Homo sapiens, UniProt Q9UBN7); assay: Inhibition of recombinant human N-terminal GST tagged HDAC6 expressed in baculovirus infected Sf9 insect cells using Ac-Leu-Gly-Lys (Ac)-AMC as substrate preincubated for 5 mins followed by substrate addition and measured after 30 mins by fluorescence microtiter plate reader assay
# T1 sequence (Q9UBN7 whole entry): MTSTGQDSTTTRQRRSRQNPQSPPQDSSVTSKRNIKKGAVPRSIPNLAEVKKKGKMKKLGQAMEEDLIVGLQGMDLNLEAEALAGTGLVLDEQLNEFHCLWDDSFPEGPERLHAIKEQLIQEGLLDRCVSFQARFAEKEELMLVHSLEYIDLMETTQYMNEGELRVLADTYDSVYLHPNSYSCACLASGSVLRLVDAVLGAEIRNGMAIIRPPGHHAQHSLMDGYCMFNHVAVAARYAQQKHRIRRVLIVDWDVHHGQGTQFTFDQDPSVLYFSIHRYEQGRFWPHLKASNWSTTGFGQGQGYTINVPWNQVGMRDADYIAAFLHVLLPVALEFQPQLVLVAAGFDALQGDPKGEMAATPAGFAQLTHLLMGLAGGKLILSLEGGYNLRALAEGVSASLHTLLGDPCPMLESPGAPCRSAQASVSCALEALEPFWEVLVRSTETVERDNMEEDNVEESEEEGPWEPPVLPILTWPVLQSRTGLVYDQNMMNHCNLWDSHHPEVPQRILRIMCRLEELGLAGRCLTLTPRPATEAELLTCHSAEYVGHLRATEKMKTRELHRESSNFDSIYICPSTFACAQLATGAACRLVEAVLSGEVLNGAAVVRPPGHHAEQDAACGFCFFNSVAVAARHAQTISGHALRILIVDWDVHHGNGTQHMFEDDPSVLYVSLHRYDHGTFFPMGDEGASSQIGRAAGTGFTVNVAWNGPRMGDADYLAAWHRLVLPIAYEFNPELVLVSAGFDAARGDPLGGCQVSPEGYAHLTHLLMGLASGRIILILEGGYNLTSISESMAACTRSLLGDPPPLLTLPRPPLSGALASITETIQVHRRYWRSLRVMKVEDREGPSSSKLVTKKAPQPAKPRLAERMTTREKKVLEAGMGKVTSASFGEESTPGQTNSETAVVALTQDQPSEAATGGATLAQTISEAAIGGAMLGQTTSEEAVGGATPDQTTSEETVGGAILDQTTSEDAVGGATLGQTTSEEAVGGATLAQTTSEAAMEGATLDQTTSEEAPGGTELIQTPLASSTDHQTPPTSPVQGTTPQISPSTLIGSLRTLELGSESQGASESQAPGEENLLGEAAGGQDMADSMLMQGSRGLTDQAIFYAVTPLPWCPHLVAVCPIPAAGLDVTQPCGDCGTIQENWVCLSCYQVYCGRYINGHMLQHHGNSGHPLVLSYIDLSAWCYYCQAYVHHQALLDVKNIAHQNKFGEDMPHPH
# B16-F10 [2] = assay: Effect on acetyl-SMC3 expression level in mouse B16-F10 cells at 1 to 4 uM incubated for 6 hrs by Western blot analysis; assay type: functional, cell-based; conditions: dose 1-4 µM
# B16-F10 [3] = assay: cells; assay type: functional, cell-based; conditions: Mus musculus, B16-F10, 48 h
# Description: Antiproliferative activity against mouse B16-F10 cells assessed as inhibition of cell proliferation measured after 48 hrs by MTT assay
# Histone deacetylase 8 = target: T2, Histone deacetylase 8 (Homo sapiens, UniProt Q9BY41); assay: Inhibition of full length recombinant human C-terminal His tagged HDAC8 expressed in baculovirus infected Sf9 insect cells using Ac-Leu-GlyLys (Tfa)-AMC as substrate preincubated for 5 mins followed by substrate addition and measured after 30 mins by fluorescence microtiter plate reader assay
# T2 sequence (Q9BY41 whole entry): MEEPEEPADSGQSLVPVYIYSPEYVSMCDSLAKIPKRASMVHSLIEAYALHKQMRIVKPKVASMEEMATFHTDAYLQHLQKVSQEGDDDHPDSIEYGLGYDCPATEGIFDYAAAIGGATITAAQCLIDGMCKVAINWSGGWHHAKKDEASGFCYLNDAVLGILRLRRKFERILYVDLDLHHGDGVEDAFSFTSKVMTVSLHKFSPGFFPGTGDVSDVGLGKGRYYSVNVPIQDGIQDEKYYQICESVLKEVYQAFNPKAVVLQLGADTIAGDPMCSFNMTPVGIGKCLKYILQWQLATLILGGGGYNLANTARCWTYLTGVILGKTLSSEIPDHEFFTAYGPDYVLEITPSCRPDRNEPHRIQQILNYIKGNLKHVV
# [4] = Inhibition of pig brain tubulin polymerization by spectrophotometric analysis; parameters: species or system Sus scrofa
# [5] = Clearance in Sprague-Dawley rat at 10 mg/kg, po measured upto 48 hrs by LC-MS/MS analysis; assay type: ADME, organism-based; conditions: in vivo
# B16-F10 [6] = assay: Antitumour activity against mouse B16-F10 cells allografted in C57BL/6 mouse model assessed as decrease in PD-L1 expression level by Western blot analysis relative to control; assay type: functional; parameters: scale not given: the % may be the effect or the level left
# [7] = AUC (0 to infinity) in Sprague-Dawley rat at 10 mg/kg, po measured upto 48 hrs by LC-MS/MS analysis; assay type: ADME, organism-based; parameters: route oral, dose 10 mg/kg, time <=48; conditions: in vivo
# [8] = MRT(0 to t) in Sprague-Dawley rat at 2 mg/kg, iv measured upto 48 hrs by LC-MS/MS analysis; assay type: ADME, organism-based; conditions: in vivo
# [9] = Cmax in Sprague-Dawley rat at 10 mg/kg, po measured upto 48 hrs by LC-MS/MS analysis; assay type: ADME, organism-based; parameters: route oral, dose 10 mg/kg, time <=48; conditions: in vivo
# B16-F10 [10] = assay: Antitumour activity against mouse B16-F10 cells allografted in C57BL/6 mouse model assessed as increase in CD3 positive/CD8 positive cells in tumor at 50 mg/kg, ip administered for 14 days in presence of 2-(5-chloro-2-(3-cyanobenzyloxy)-4-((2-methylbiphenyl-3-yl)methoxy)benzylamino)-2-methylpropanoic acid by flow cytometry analysis (Rvb= 6.65%); assay type: functional; conditions: time 14 day
# [11] = AUC(0 to t) in Sprague-Dawley rat at 2 mg/kg, iv measured upto 48 hrs by LC-MS/MS analysis; assay type: ADME, organism-based; parameters: route intravenous, dose 2 mg/kg, time <=48; conditions: in vivo
# [12] = Apparent volume of distribution in Sprague-Dawley rat at 10 mg/kg, po measured upto 48 hrs by LC-MS/MS analysis; assay type: ADME, organism-based; conditions: in vivo
# [13] = Oral bioavailability in Sprague-Dawley rat at 10 mg/kg measured upto 48 hrs by LC-MS/MS analysis; assay type: ADME, organism-based; conditions: in vivo
# [14] = MRT(0 to t) in Sprague-Dawley rat at 10 mg/kg, po measured upto 48 hrs by LC-MS/MS analysis; assay type: ADME, organism-based; conditions: in vivo
# [15] = Potency index, ratio of CAY10603 IC50 to test compound IC50 for antiproliferative activity against human YCC3/7 cells assessed as cell growth inhibition; assay type: functional
# [16] = Resistance index, ratio of IC50 for antiproliferative activity against human YCC3/7 cells to IC50 for antiproliferative activity against human YCC-11 cells; assay type: functional
# B16-F10 [17] = assay: Antitumor activity against mouse B16-F10 cells allografted in C57BL/6 mouse assessed as tumor growth inhibition at 10 mg/kg, ip administered daily for 14 days by caliper method (Rvb= 63%); assay type: functional; conditions: 336 h, time 14 day, read-out: TGI
# [18] = Cardiotoxicity in C57BL/6 mouse at 50 mg/kg, IG administered once daily via gavage for 14 days by ECG analysis; assay type: toxicity, organism-based; conditions: in vivo, po, 336 h, time 14 day
# [19] = AUC (0 to infinity) in Sprague-Dawley rat at 2 mg/kg, iv measured upto 48 hrs by LC-MS/MS analysis; assay type: ADME, organism-based; parameters: route intravenous, dose 2 mg/kg, time <=48; conditions: in vivo
IC50 [1] [µM],IC50 (B16-F10 [3]) [µM],IC50 (Histone deacetylase 8) [µM],IC50 [4] [µM],CL [5] [mL/min/kg],AUC [7] [ng·h/mL],MRT last at 48 h [8] [h],Cmax [9] [ng/mL],AUC(0-t) at 48 h [11] [ng·h/mL],Vz/F [12] [L/kg],bioavailability [13] [%],MRT last at 48 h [14] [h],AUC(0-inf) [19] [ng·h/mL],SMILES,Activity (B16-F10 [2]),Activity (B16-F10 [6]) [%],Activity (B16-F10 [10]) [%],Ratio IC50 [15],Ratio IC50 [16],inhibition in vivo at 10 mg/kg (B16-F10 [17]) [%],Activity [18]
0.048,5.26,14.6,–,–,–,–,–,–,–,–,–,–,COc1ccc(-c2ncc(C(=O)NCCCCCCC(=O)NO)[nH]2)c(OC)c1,Active,–,–,–,–,–,–
0.031,2.31,9.02,> 100,2402,138.6,1.1,35,318,1485.8,8.7,7.4,319,COc1ccc(-c2ncc(C(=O)NCCCCCCC(=O)NO)s2)c(OC)c1,Active,20,16.5,12,1.2,69,Non-Toxic
